Reference: PubChem BioAssay (NCI)
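In this assay, cells in 96-well plates receive the compound at five concentrations for 48 hours. Endpoints are linearly interpolated between the surrounding concentrations. Definition used: TGI = concentration required for complete inhibition of growth.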

How the values were obtained:
Test in all cases: growth of human tumour cells (NCI), 48 h
786-0 renal = system: 786-0 renal
A498 renal = system: A498 renal
A549 NSCLC = system: A549 NSCLC
ACHN renal = system: ACHN renal
BT-549 breast = system: BT-549 breast
CAKI-1 renal = system: CAKI-1 renal
CCRF-CEM leukemia = system: CCRF-CEM leukemia
COLO 205 colon = system: COLO 205 colon
DU-145 prostate = system: DU-145 prostate
EKVX NSCLC = system: EKVX NSCLC
HCT-116 colon = system: HCT-116 colon
HCT-15 colon = system: HCT-15 colon
HL-60(TB) leukemia = system: HL-60(TB) leukemia
HOP-62 NSCLC = system: HOP-62 NSCLC
HOP-92 NSCLC = system: HOP-92 NSCLC
HS 578T breast = system: HS 578T breast
HT29 colon = system: HT29 colon
IGROV1 ovarian = system: IGROV1 ovarian
K-562 leukemia = system: K-562 leukemia
KM12 colon = system: KM12 colon
LOX IMVI melanoma = system: LOX IMVI melanoma
M14 melanoma = system: M14 melanoma
MALME-3M melanoma = system: MALME-3M melanoma
MCF7 breast = system: MCF7 breast
MDA-MB-231 breast = system: MDA-MB-231 breast
MDA-N = system: MDA-N
MOLT-4 leukemia = system: MOLT-4 leukemia
NCI-H226 lung = system: NCI-H226 lung
NCI-H23 lung = system: NCI-H23 lung
NCI-H460 lung = system: NCI-H460 lung
NCI-H522 lung = system: NCI-H522 lung
NCI/ADR-RES ovarian = system: NCI/ADR-RES ovarian
OVCAR-3 ovarian = system: OVCAR-3 ovarian
OVCAR-4 ovarian = system: OVCAR-4 ovarian
OVCAR-5 ovarian = system: OVCAR-5 ovarian
OVCAR-8 ovarian = system: OVCAR-8 ovarian
PC-3 prostate = system: PC-3 prostate
RPMI-8226 leukemia = system: RPMI-8226 leukemia
RXF 393 renal = system: RXF 393 renal
SF-268 CNS = system: SF-268 CNS
SF-295 CNS = system: SF-295 CNS
SF-539 CNS = system: SF-539 CNS
SK-MEL-2 melanoma = system: SK-MEL-2 melanoma
SK-MEL-28 melanoma = system: SK-MEL-28 melanoma
SK-MEL-5 melanoma = system: SK-MEL-5 melanoma
SK-OV-3 ovarian = system: SK-OV-3 ovarian
SN12C renal = system: SN12C renal
SNB-19 CNS = system: SNB-19 CNS
SNB-75 CNS = system: SNB-75 CNS
SR leukemia = system: SR leukemia
SW-620 colon = system: SW-620 colon
T-47D breast = system: T-47D breast
TK-10 renal = system: TK-10 renal
U251 CNS = system: U251 CNS
UACC-257 melanoma = system: UACC-257 melanoma
UACC-62 melanoma = system: UACC-62 melanoma
UO-31 renal = system: UO-31 renal
HCC-2998 colon = system: HCC-2998 colon
MDA-MB-435 = system: MDA-MB-435

NN/C(=N\S(=O)(=O)c1cc2ccccc2o1)Nc1ccc(Cl)cc1
TGI (786-0 renal): > 100 µM | TGI (A498 renal): > 100 µM | TGI (A549 NSCLC): > 100 µM | TGI (ACHN renal): > 100 µM | TGI (BT-549 breast): > 100 µM | TGI (CAKI-1 renal): > 100 µM | TGI (CCRF-CEM leukemia): > 100 µM | TGI (COLO 205 colon): > 100 µM | TGI (DU-145 prostate): > 100 µM | TGI (EKVX NSCLC): > 100 µM | TGI (HCT-116 colon): > 100 µM | TGI (HCT-15 colon): > 100 µM | TGI (HL-60(TB) leukemia): > 100 µM | TGI (HOP-62 NSCLC): > 100 µM | TGI (HOP-92 NSCLC): 59.5 µM | TGI (HS 578T breast): 97.2 µM | TGI (HT29 colon): > 100 µM | TGI (IGROV1 ovarian): > 100 µM | TGI (K-562 leukemia): > 100 µM | TGI (KM12 colon): > 100 µM | TGI (LOX IMVI melanoma): > 100 µM | TGI (M14 melanoma): > 100 µM | TGI (MALME-3M melanoma): > 100 µM | TGI (MCF7 breast): > 100 µM | TGI (MDA-MB-231 breast): > 100 µM | TGI (MDA-N): > 100 µM | TGI (MOLT-4 leukemia): > 100 µM | TGI (NCI-H226 lung): > 100 µM | TGI (NCI-H23 lung): > 100 µM | TGI (NCI-H460 lung): > 100 µM | TGI (NCI-H522 lung): 68.3 µM | TGI (NCI/ADR-RES ovarian): > 100 µM | TGI (OVCAR-3 ovarian): > 100 µM | TGI (OVCAR-4 ovarian): > 100 µM | TGI (OVCAR-5 ovarian): > 100 µM | TGI (OVCAR-8 ovarian): > 100 µM | TGI (PC-3 prostate): > 100 µM | TGI (RPMI-8226 leukemia): > 100 µM | TGI (RXF 393 renal): 64.2 µM | TGI (SF-268 CNS): > 100 µM | TGI (SF-295 CNS): > 100 µM | TGI (SF-539 CNS): > 100 µM | TGI (SK-MEL-2 melanoma): > 100 µM | TGI (SK-MEL-28 melanoma): > 100 µM | TGI (SK-MEL-5 melanoma): > 100 µM | TGI (SK-OV-3 ovarian): > 100 µM | TGI (SN12C renal): > 100 µM | TGI (SNB-19 CNS): > 100 µM | TGI (SNB-75 CNS): 85.8 µM | TGI (SR leukemia): > 100 µM | TGI (SW-620 colon): > 100 µM | TGI (T-47D breast): > 100 µM | TGI (TK-10 renal): > 100 µM | TGI (U251 CNS): > 100 µM | TGI (UACC-257 melanoma): > 100 µM | TGI (UACC-62 melanoma): > 100 µM | TGI (UO-31 renal): > 100 µM

O=P(O)(O)C(NCC(O)CN1CCOCC1)P(=O)(O)O (stereo not given)
TGI (786-0 renal): > 100 µM | TGI (A498 renal): > 100 µM | TGI (A549 NSCLC): > 100 µM | TGI (ACHN renal): > 100 µM | TGI (BT-549 breast): > 100 µM | TGI (CAKI-1 renal): > 100 µM | TGI (CCRF-CEM leukemia): > 100 µM | TGI (COLO 205 colon): > 100 µM | TGI (DU-145 prostate): > 100 µM | TGI (EKVX NSCLC): > 100 µM | TGI (HCC-2998 colon): > 100 µM | TGI (HCT-116 colon): > 100 µM | TGI (HCT-15 colon): > 100 µM | TGI (HL-60(TB) leukemia): > 100 µM | TGI (HOP-62 NSCLC): > 100 µM | TGI (HOP-92 NSCLC): > 100 µM | TGI (HS 578T breast): > 100 µM | TGI (HT29 colon): > 100 µM | TGI (IGROV1 ovarian): > 100 µM | TGI (K-562 leukemia): > 100 µM | TGI (KM12 colon): > 100 µM | TGI (LOX IMVI melanoma): > 100 µM | TGI (M14 melanoma): > 100 µM | TGI (MALME-3M melanoma): > 100 µM | TGI (MCF7 breast): > 100 µM | TGI (MDA-MB-231 breast): > 100 µM | TGI (MDA-MB-435): > 100 µM | TGI (MDA-N): > 100 µM | TGI (MOLT-4 leukemia): > 100 µM | TGI (NCI-H226 lung): > 100 µM | TGI (NCI-H23 lung): > 100 µM | TGI (NCI-H460 lung): > 100 µM | TGI (NCI-H522 lung): > 100 µM | TGI (NCI/ADR-RES ovarian): > 100 µM | TGI (OVCAR-3 ovarian): > 100 µM | TGI (OVCAR-5 ovarian): > 100 µM | TGI (OVCAR-8 ovarian): > 100 µM | TGI (PC-3 prostate): > 100 µM | TGI (RPMI-8226 leukemia): > 100 µM | TGI (RXF 393 renal): > 100 µM | TGI (SF-268 CNS): > 100 µM | TGI (SF-295 CNS): > 100 µM | TGI (SF-539 CNS): > 100 µM | TGI (SK-MEL-28 melanoma): > 100 µM | TGI (SK-MEL-5 melanoma): > 100 µM | TGI (SK-OV-3 ovarian): > 100 µM | TGI (SNB-19 CNS): > 100 µM | TGI (SNB-75 CNS): > 100 µM | TGI (SR leukemia): > 100 µM | TGI (SW-620 colon): > 100 µM | TGI (TK-10 renal): > 100 µM | TGI (U251 CNS): > 100 µM | TGI (UACC-257 melanoma): > 100 µM | TGI (UACC-62 melanoma): > 100 µM | TGI (UO-31 renal): > 100 µM

N#Cc1nn(C(N)=O)c(N)c1C#N
TGI (786-0 renal): > 100 µM | TGI (A498 renal): > 100 µM | TGI (A549 NSCLC): > 100 µM | TGI (ACHN renal): > 100 µM | TGI (BT-549 breast): > 100 µM | TGI (CAKI-1 renal): > 100 µM | TGI (CCRF-CEM leukemia): > 100 µM | TGI (COLO 205 colon): > 100 µM | TGI (DU-145 prostate): > 100 µM | TGI (EKVX NSCLC): > 100 µM | TGI (HCC-2998 colon): > 100 µM | TGI (HCT-116 colon): > 100 µM | TGI (HCT-15 colon): > 100 µM | TGI (HL-60(TB) leukemia): > 100 µM | TGI (HOP-62 NSCLC): > 100 µM | TGI (HS 578T breast): > 100 µM | TGI (HT29 colon): > 100 µM | TGI (IGROV1 ovarian): > 100 µM | TGI (K-562 leukemia): > 100 µM | TGI (KM12 colon): > 100 µM | TGI (M14 melanoma): > 100 µM | TGI (MCF7 breast): > 100 µM | TGI (MDA-MB-231 breast): > 100 µM | TGI (MDA-N): > 100 µM | TGI (MOLT-4 leukemia): > 100 µM | TGI (NCI-H226 lung): > 100 µM | TGI (NCI-H23 lung): > 100 µM | TGI (NCI-H460 lung): > 100 µM | TGI (NCI-H522 lung): > 100 µM | TGI (NCI/ADR-RES ovarian): > 100 µM | TGI (OVCAR-3 ovarian): > 100 µM | TGI (OVCAR-4 ovarian): > 100 µM | TGI (OVCAR-5 ovarian): > 100 µM | TGI (OVCAR-8 ovarian): > 100 µM | TGI (PC-3 prostate): > 100 µM | TGI (SF-268 CNS): > 100 µM | TGI (SF-295 CNS): > 100 µM | TGI (SF-539 CNS): > 100 µM | TGI (SK-MEL-2 melanoma): > 100 µM | TGI (SK-MEL-28 melanoma): > 100 µM | TGI (SK-MEL-5 melanoma): > 100 µM | TGI (SK-OV-3 ovarian): > 100 µM | TGI (SN12C renal): > 100 µM | TGI (SNB-19 CNS): > 100 µM | TGI (SNB-75 CNS): > 100 µM | TGI (SR leukemia): > 100 µM | TGI (SW-620 colon): > 100 µM | TGI (T-47D breast): > 100 µM | TGI (TK-10 renal): > 100 µM | TGI (U251 CNS): > 100 µM | TGI (UACC-257 melanoma): > 100 µM | TGI (UACC-62 melanoma): > 100 µM | TGI (UO-31 renal): > 100 µM
